{
  "source": "patent US20250213649A1",
  "about": "“PEPTIDE HAVING ANTI-INFLAMMATORY AND ANTI-FIBROTIC ACTIVITIES AND USE THEREOF” (CAREGEN CO., LTD., priority 2022, published 2025)",
  "key": {"MRC-5 cells": {"tested_on": "MRC-5 cells", "assay": "Inhibition of LPS-induced inflammatory cytokine gene expression, RT-PCR, MRC-5 cells", "assay_type": "cell-based", "conditions": "5 μg/ml LPS, peptide 10, 50, 100, 500 μM, 24 hours, RT-PCR (FIG. 1)", "method": "MRC-5 cells (lung fibroblast cells) were seeded at 3×10^5 cells/well in a 12-well plate and used in the experiment. After culturing for 1 day with a culture medium containing 10% FBS, the culture medium was replaced with a culture medium without containing FBS to induce starvation for 4 hours. A normal group without being treated with any substances, a group treated with 5 μg/ml of LPS (Sigma Aldrich) (negative control group), groups treated with 5 μg/ml of LPS and the peptide of Production Example 1 (10, 50, 100, 500 μM), and a group treated with 5 μg/ml of LPS and 10 μM of Dexamethasone (DEX) (positive control group) were treated with active substances and drugs respectively, and then RNA was extracted after 24 hours to carry out RT-PCR. RNA was extracted from MRC-5 cells using an easy-BLUE™ Total RNA extraction kit (Qiagen, Germany). The extracted RNA was converted into cDNA with RT-PCR premix (iNtRON Biotechnology, Seongnam, Korea). After preparing a reaction mixture with PCR premix (iNtRON Biotechnology, Seongnam, Korea) and primers for each gene, PCR was carried out using a PCR machine (Eppendorf, Germany). Next, the mRNA expression pattern was determined by agarose gel electrophoresis. The base sequences of the primers used in the experiment are listed in [Table 2] below."}, "BALB/c mice": {"tested_on": "BALB/c mice", "assay": "LPS-induced acute lung inflammation model, ELISA of pro-inflammatory proteins in BALF", "assay_type": "in vivo", "conditions": "BALB/c female mice, LPS 10 μg intranasal, peptide 0.5 mg, 1 mg intranasal, 24 hours (FIG. 11a-11d)", "method": "BALB/c mice (Female/7W) were used in animal experiments, and an acute lung inflammation model was established by injection of LPS. As shown in [Table 5] below, 7-week-old BALB/c female mice were divided into 5 groups of 5 mice each, and then the experiment was carried out. On the 1st day, LPS (10 μg/50 μl/mouse) was administered intranasally to the G2 to G5 groups. 1 hour after LPS administration, the G3 and G4 groups were subjected to intranasal administration with the peptide of Production Example 1 (0.5 mg, 1 mg), and the G5 positive control group was subjected to intraperitoneal administration with Dexamethasone (100 μg). 24 hours after the administration of the active substance and the drug, the mice were sacrificed to obtain the bronchoalveolar lavage fluid and the lung tissue, which were used in the next analysis.\nThe collected BALF was subjected to the ELISA analysis of pro-inflammatory proteins. The supernatant obtained by centrifuging the collected BALF at 3,000 rpm for 10 minutes was subjected to analysis using a TNF-α Quantikine ELISA kit (R&D systems), an IL-1β Quantikine ELISA kit (R&D systems), an IL-6 Quantikine ELISA kit (R&D systems), and a Myeloperoxidase (MPO) Quantikine ELISA Kit (R&D systems) according to the instructions for use, and then the absorbance was measured at 450 nm using a microplate reader."}},
  "data": [
    {"sequence": "KYLLVHRPYYRR [peptide of Production Example 1]", "values": [
      {"measurement": "gene expression of IL-1β", "setting": "MRC-5 cells", "value": "decreases in a concentration-dependent manner"},
      {"measurement": "gene expression of IL-6", "setting": "MRC-5 cells", "value": "decreases in a concentration-dependent manner"},
      {"measurement": "gene expression of IL-8", "setting": "MRC-5 cells", "value": "decreases in a concentration-dependent manner"},
      {"measurement": "gene expression of TNF-α", "setting": "MRC-5 cells", "value": "decreases in a concentration-dependent manner"},
      {"measurement": "expression level of IL-1β in BALF (ELISA)", "setting": "BALB/c mice", "value": "reduced the increased expression levels of the cytokines in a concentration-dependent manner"},
      {"measurement": "expression level of IL-6 in BALF (ELISA)", "setting": "BALB/c mice", "value": "reduced the increased expression levels of the cytokines in a concentration-dependent manner"},
      {"measurement": "expression level of Myeloperoxidase (MPO) in BALF (ELISA)", "setting": "BALB/c mice", "value": "reduced the increased expression levels of the cytokines in a concentration-dependent manner"},
      {"measurement": "expression level of TNF-α in BALF (ELISA)", "setting": "BALB/c mice", "value": "reduced the increased expression levels of the cytokines in a concentration-dependent manner"}
    ]}
  ]
}
